{"source": "paper PMC6145916", "about": "“Interaction of mitochondrial fission factor with dynamin related protein 1 governs physiological mitochondrial function in vivo” (Scientific Reports, 2018)", "system": "Mff-Drp1 interaction", "test": "Co-immunoprecipitation of recombinant Drp1 with Mff", "format": "binding, human", "conditions": "1 µM P259, 2 hours at 4 °C, 200 ng Drp1, 200 ng adaptor, RIPA buffer; representative blot of two independent experiments", "from_the_text": "Figure 1 Rational peptide design identifies a novel inhibitor of the Mff-Drp1 protein-protein interaction. (a) A scheme of the rationale behind the inhibitor design. […] Surface and ribbon diagrams of Drp1 structure (PDB, 4BEJ) with the GTPase, bundle signaling element (BSE), and stalk domains highlighted. (d) A heatmap representing sequence conservation of human proteins that contain a region similar to P259. Sequence conservation corresponds to the number of residues similar/identical to P259 from each sequence. […] The obtained graph is of the mean standardized response and ± s.e. as a function of time for n = 3 individual experiments, with 3 technical replicates each. […]\nProtein binding to the surface was obtained through current measurements during a voltage sweep by a potentiostat. […] After calibration with 30 µL RIPA buffer for 3 minutes, […] of 100 nM protein was incubated over the surface for 3 minutes as sensor response w as measured. Disso ciation was measured by re-applying 30 µL of RIPA buffer. […]\nThe standardized response value was calculated by the following equation: […]\nKD values were subsequently calculated using the binding and dissociation curves and the analysis software provided by the manufacturer (Nanomedical Diagnostics). […]\nProtein content was measured using Bradford protein assay dye (Bio-Rad, CA, USA) and subsequently standardized. […]", "note": "Where no end group is shown, it is not given here.", "data": [{"substance": "YGRKKRRQRRRGSGIIQLPEIVVV-NH2 (C-terminus assumed) [P259]", "values": [{"measurement": "Mff binding to co-immunoprecipitated recombinant Drp1", "value": "abolished Mff binding"}]}]}
